Literature values, collected in US11648313B2, “Multimodal therapy for cancer cell destruction” (Southeast Missouri State University, priority 2015, dated 2023).

Tests used:
FAK = FAK (Homo sapiens, UniProt Q05397)
NF-kB = details: neuroblastoma cells

Chain of FAK (Q05397 whole entry): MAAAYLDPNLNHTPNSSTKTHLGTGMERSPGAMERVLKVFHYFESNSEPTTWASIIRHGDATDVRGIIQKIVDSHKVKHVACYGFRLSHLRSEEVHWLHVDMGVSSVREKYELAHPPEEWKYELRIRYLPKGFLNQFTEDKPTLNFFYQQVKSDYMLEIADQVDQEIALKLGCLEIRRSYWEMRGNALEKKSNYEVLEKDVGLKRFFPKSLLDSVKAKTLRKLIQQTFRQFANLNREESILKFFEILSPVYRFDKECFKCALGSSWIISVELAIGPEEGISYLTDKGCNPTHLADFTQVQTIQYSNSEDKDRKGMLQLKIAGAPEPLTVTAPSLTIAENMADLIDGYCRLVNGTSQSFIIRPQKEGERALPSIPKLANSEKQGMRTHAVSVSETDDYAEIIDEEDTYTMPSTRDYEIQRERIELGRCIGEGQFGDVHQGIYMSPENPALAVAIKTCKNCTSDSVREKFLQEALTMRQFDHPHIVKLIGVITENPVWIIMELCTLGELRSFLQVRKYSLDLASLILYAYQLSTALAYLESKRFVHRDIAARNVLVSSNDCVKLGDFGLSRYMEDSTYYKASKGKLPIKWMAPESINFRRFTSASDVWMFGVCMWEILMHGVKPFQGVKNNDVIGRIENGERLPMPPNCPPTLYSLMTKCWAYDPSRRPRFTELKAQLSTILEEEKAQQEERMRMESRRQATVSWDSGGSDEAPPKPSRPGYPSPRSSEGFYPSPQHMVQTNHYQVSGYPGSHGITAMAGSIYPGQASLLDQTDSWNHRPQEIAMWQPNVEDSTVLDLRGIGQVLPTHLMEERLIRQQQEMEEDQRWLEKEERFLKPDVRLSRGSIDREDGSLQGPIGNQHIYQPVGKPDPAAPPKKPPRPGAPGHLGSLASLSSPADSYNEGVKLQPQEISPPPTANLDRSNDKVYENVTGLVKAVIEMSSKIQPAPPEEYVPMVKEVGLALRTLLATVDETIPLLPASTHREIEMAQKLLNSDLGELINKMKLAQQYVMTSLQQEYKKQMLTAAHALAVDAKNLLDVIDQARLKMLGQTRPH

**Q.** For Cl.Cl.Cl.Cl.Nc1cc(N)c(N)cc1N [Y15], which “effect of FAK inhibition on cell survival, apoptosis, cell cycle” value (FAK) is on record?
**A.** decreased cell survival, increased apoptosis, and G2 cell cycle arrest

**Q.** And the water solubility?
**A.** adequate water solubility

**Q.** With COc1cc([C@@H]2c3cc4c(cc3[C@@H](O[C@@H]3O[C@@H]5CO[C@@H](C)O[C@H]5[C@H](O)[C@H]3O)[C@H]3COC(=O)[C@H]23)OCO4)cc(OC)c1O [VP16] as the compound, how does the NF-kB activation (NF-kB) read?
**A.** trigger NF-kB activation

**Q.** For COc1cccc2c1C(=O)c1c(O)c3c(c(O)c1C2=O)C[C@@](O)(C(=O)CO)C[C@@H]3O[C@H]1C[C@H](N)[C@H](O)[C@H](C)O1 [doxorubicin], which NF-kB activation (NF-kB) is on record?
**A.** trigger NF-kB activation

**Q.** What does the source list for CNC(=O)c1ccccc1Nc1nc(Nc2ccc(N3CCOCC3)cc2OC)ncc1Cl [NVP-TAE 226]?
**A.** effect of FAK inhibition on cell survival, apoptosis, cell cycle (FAK): decreased cell survival, increased apoptosis, and G2 cell cycle arrest; water solubility: adequate water solubility
